Test results: US10882826B2, “Quinolinone or quinazolinone comprising antibiofilm compositions, compounds and methods and uses relating thereto” (University College Cork—National University of Ireland, priority 2015, dated 2021)

How the values were obtained:
Pseudomonus aeruginosa = experiment: Virulence of Pseudomonas aeruginosa (summary statement); format: cell-based; conditions: unlike HHQ and PQS
Method: The virulence of compounds B1, B2, C2, C3, C4, C5, C6, C8 and C11 towards P. aeruginosa was assessed using the following method:
P. aeruginosa strains were cultured as described above for 24 hr, with the addition of test compounds (10 μM). Cultures were centrifuged at 4000 rpm for 10 minutes and the cell free supernatant (5 ml) removed. Chloroform (3 ml) was added, and mixed by vortex. After centrifugation at 4000 rpm for 5 mins, the lower aqueous phase was transferred to 0.2 M HCl (2 ml). Samples were mixed by vortex and centrifuged at 4000 rpm for 5 mins to separate the phases. An aliquot of the top phase (1 ml) was removed and spectrophotmetrically analysed at OD570 nm. Phenazine production was calculated using the following formula: OD570 nm×2×17.072 and the units expressed in μg/ml. […]

[1] = system: A. fumigatus Af293 biofilm; experiment: A. fumigatus biofilm assay (crystal violet); format: cell-based, Aspergillus fumigatus
Method: A. fumigatus Af293 was routinely grown on Sabouraud dextrose agar (SDA) in 100 ml cell culture flasks at 37° C. for 3-4 days until a lawn of fungal growth was observed.
A. fumigatus Af293 was grown on SDA in 100 ml cell culture flasks at 37° C. for 3-4 days. Conidia were harvested by flooding the surface of the agar plates with 5 ml PBS (Oxoid) containing 0.025% (v/v) Tween 20 and gently moving the liquid over the surface of the fungal lawn. The conidial suspension was transferred into a 25 ml sterile container and conidia were counted using a Neubauer haemocytometer and light microscope. Conidia were adjusted to the required concentration in RPMI 1640 (Sigma) buffered to pH 7.0 with 0.165 M MOPS immediately prior to biofilm formation analysis.
To assess biofilm formation, counted A. fumigatus spores (1×10^5) in MOPS buffered RPMI 1640 were inoculated into 24- and 96-well plates and grown overnight in the presence of 100 μM HHQ, PQS and the test compounds. After 24 hrs, the media was removed and the biofilm washed twice with distilled water after which 0.1% crystal violet (CV) was added to each well and allowed to stand for 1 hr at room temperature. The crystal violet was removed and all wells washed in a water bath by inversion. Ethanol was added to each well to solubilise biofilms after which samples were read on a spectrophotometer at Abs595 nm.

mammalian cells = experiment: Cytotoxicity towards mammalian cells (summary statement); format: cell-based
Method: Lactate dehydrogenase (LDH) release from IB3 lung epithelial cells was assayed as a measure of cytotoxicity using an LDH colorimetric kit (Roche) according to manufacturers' instructions. Briefly, IB3-1 cells were seeded onto 96 well plates and treated with methanol (control) and test compounds (100 μM). Following 16 hr incubation at 37° C. and 5% CO2, supernatants were removed and added to catalyst reaction mixture in a fresh plate and further incubated at 37° C. and 5% CO2 for 30 mins to allow for colour development. After this period, the plate was analysed on an ELISA plate reader at OD490 nm. Cytotoxicity was expressed as a percentage of cells treated with 0.1% (v/v) Triton (100% cytotoxicity). The results are detailed in table 3:
The above experiments were repeated, testing some compounds against further cell lines (A549, DU145 and HeLa).

CCCCCCCc1cc(=O)c2cc(CCCCCC)ccc2[nH]1 [Compound C7]
effect on virulence of Pseudomonus aeruginosa (in words) (Pseudomonus aeruginosa): do not increase the virulence
Relative absorbance at 595 nm compared to methanol control, Mean ([1]; A. fumigatus Af293 biofilm, 100 μM, 24 hrs, crystal violet): 0.27
effectiveness against fungal biofilms formed by Aspergillus fumigatus (in words) ([1]; summary statement): effective
cytotoxicity towards mammalian cells (in words) (mammalian cells): reduced cytotoxicity
